Test results reported in paper PMC12392461, “Beyond Estrogenicity: A Comparative Assessment of Bisphenol A and Its Alternatives in In Vitro Assays Questions Safety of Replacements” (Environmental Science & Technology, 2025).
Like-named read-outs stand apart in the source and are kept apart here.

Legend:
MCF7 (ARE/MMP) = conditions: for IC10, linear transformed / IC10, linear / logIC10: dosing range all; for IC10, MCF7, ARE: MCF7, ARE readout; for IC10, MCF7, MMP: MCF7, MMP readout
Protocol: (§1) Cell culture conditions and bioassay protocols including response detection are provided in Text S2.1–2.4 and Table S3. − Cell viability was determined from cell confluency using an IncuCyte S3 Live-Cell Analysis System (Sartorius AG, Essen, Germany) before and after exposure, except for SH-SY5Y cells (live–dead staining with Nuclear Green LcS1 and propidium iodide, Abcam, UK). For metabolic activation experiments, cell viability was assessed using the ToxBLAzer DualScreen Kit (Thermo Fisher Scientific) to capture the remaining toxicity in ERα-UAS-bla GripTite after treatment with the aCYP catalyst (details in Text S2.4).
(§2) For ARE, the concentration that triggered an induction ratio of 1.5 (ECIR1.5) was used as the benchmark value, as detailed in Text S2.5. IC10 values also served as a threshold for data analysis in all assays; only concentrations below IC10 were considered when deriving EC10 or ECIR1.5.
(§3) We measured the cytotoxicity of BPA and its alternatives in HEK293H (PPARγ), HEK293T (ERα), H4IIe (AhR CALUX), MCF7 (ARE/MMP), and differentiated SH-SY5Y cells (Table S6). […]
(§4) S2.2: Cell Seeding and Incubation. For all bioassays, cell suspensions in the respective assay medium were dispensed into each well of 384-well plates using a MultiFlo Dispenser (Biotek, (now Agilent), Winooski, VT, U.S.). After seeding, the plates were incubated at 37° C and 5% CO₂ for […]. The final cell densities and plate types were as follows: Black poly-D-lysine […]
(§5) 6500 cells/well, ERα: 5000 cells/well. White 384-well plates with a clear bottom (Product No.
(§6) NYC, U.S.) for AhR: 3250 cells/well. Black Collagen I coated plates were used (Product No.
(§7) S2.3: Chemical Dosing and Assay Analysis Procedures. The dosing procedure and high-throughput assay workflow have been described in detail before. 9 The dosing concentrations […]
(§8) Stock solutions were then either added directly to the respective cell culture medium or evaporated under nitrogen, followed by replenishment with fresh medium. The final solvent content in each well was kept below 1% for methanol, 0% for acetonitrile.
(§9) Dosing plates were prepared as 11 -step serial dilutions using a Hamilton Microlab Star robotic system (Hamilton, Bonaduz, Switzerland), and chemicals were dosed in duplicates by transferring 10 μL twice from the dosing plates to the cell plates . After quantifying cell confluency as described in S2. 4., the exposed cells were incubated at 37° C and 5% CO₂ for an additional 24 h. All chemicals were tested in all assays with at least three independent […]
(§10) S2.4: Cell Viability Measurement s and bioanalytical protocols . The confluency as a measure of cell viability was determined with an IncuCyte S3 Live -Cell Analysis System (Sartorius AG, Essen, Germany). With this method the confluency of cells in a microscopy image are normalized to control wells without cells and compared before and after 24 hours of exposure.
(§11) This method has been described previously 13. […]

H4IIe (AhR CALUX) = conditions: for IC10, linear transformed / IC10, linear / logIC10: Bioassay AhR, dosing range all; for IC10, linear transformed / IC10, linear / logIC10 / IC10, H4IIe, AhR: cytotoxicity; for IC10, linear: linear model fit; for logIC10: log-logistic model fit; for IC10, H4IIe, AhR: H4IIe (AhR assay cells)
Protocol: as §1, §2, §3, §4, §5, §6, §7, §8, §9, §10, §11

HEK293T (ERα) = conditions: for IC10, linear transformed / IC10, linear / logIC10: Bioassay ERα; for IC10, linear transformed / IC10, linear / logIC10 / IC10, HEK293, ERα: cytotoxicity; for IC10, linear: linear model fit; for logIC10: log-logistic model fit; for IC10, HEK293, ERα: HEK293 (ERα assay cells)
Protocol: as §1, §2, §3, §4, §5, §6, §7, §8, §9, §10, §11

HEK293H (PPARγ) = conditions: for IC10, linear transformed / IC10, linear / logIC10: PPARγ bioassay cytotoxicity; for IC10, linear: linear model; for logIC10: log-logistic model; for IC10, HEK293, PPARγ: cytotoxicity, HEK293 (PPARγ assay cells)
Protocol: as §1, §2, §3, §4, §5, §6, §7, §8, §9, §10, §11

[1] = test system: Antioxidant response element; test: MitoOxTox: oxidative stress response in AREc32; conditions: for logEC10: log-logistic model fit
Excerpt: (§12) All bioassay media components and the ERα-UAS-bla GripTite and PPARγ-UAS-bla cells were obtained from Thermo Fisher Scientific (Waltham, MA, USA). AREc32 reporter gene cells based on MCF7 were provided by C. Roland Wolf (Cancer Research UK); AhR CALUX cells (H4L7.5c2 derived from H4IIe) were provided by Michael Denison (UC Davis, USA); and SH-SY5Y cells were purchased from Sigma-Aldrich.
as §1
(§13) For ARE, the concentration that triggered an induction ratio of 1.5 (ECIR1.5) was used as the benchmark value, as detailed in Text S2.5. IC10 values also served as a threshold for data analysis in all assays; only concentrations below IC10 were considered when deriving EC10 or ECIR1.5. […]
(§14) S2: Cell culture and bioassays
(§15) S2.1: Cell Culturing Conditions
(§16) All suppliers and sources are given in detail in SI-Excel S3. The bioassay media for the different assays were prepared as follows: Assay medium for ER alpha-UAS-bla GripTite (ERα) and PPAR gamma-UAS-bla 293H (PPARγ) was prepared with 98% Opti-MEM, supplemented with 2% charcoal-stripped FBS, and 100 U/mL penicillin-streptomycin. MitoOxTox and AhR assay medium was comprised of 90% DMEM with GlutaMAX, supplemented with 10% FBS, and 100 U/mL penicillin-streptomycin. Neurotoxicity assay medium consisted of the neurobasal […]
(§17) (1 picture or pasted object on this page, not shown here) […]
(§18) medium, supplemented with 2% B-27 Supplement and 2 mM GlutaMAX Supplement. SH - SY5Y cells were differentiated with 10 µM all-trans retinoic acid prior to the assay.
(§19) S2.2: Cell Seeding and Incubation. For all bioassays, cell suspensions in the respective assay medium were dispensed into each well of 384-well plates using a MultiFlo Dispenser (Biotek, (now Agilent), Winooski, VT, U.S.). After seeding, the plates were incubated at 37° C and 5% CO₂ for […]. The final cell densities and plate types were as follows: Black poly-D-lysine coated 384-well plates (Product No. 354663, Corning Inc., NYC, U.S.) were used for PPARγ:
as §5
(§20) 781098, Greiner, Kremsmünster, Austria) were utilized for the MitoOxTox assay: 2650

SH-SY5Y cells = test: cells; conditions: for EC10: Homo sapiens, SH-SY5Y;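 on Relative effect potency REPNOI: EC10 of BPA divided by EC10 of the test compound so values above 1 mean more potent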;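 on Specificity ratio (SRbaseline) SRNOI: ratio of predicted baseline cytotoxicity IC10 to the neurite outgrowth inhibition EC10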
Excerpt: as §12, §1, §13, §14, §15, §16, §17, §18, §19, §5, §20

[2] = Bioassay ARE, cytotoxicity, linear model fit
[3] = Bioassay ARE, cytotoxicity, log-logistic model fit
[4] = MMP bioassay cytotoxicity, linear model
[5] = MMP bioassay cytotoxicity, log-logistic model
[6] = read-out: EC10, linear transformed

SMILES	IC10, linear transformed (MCF7 (ARE/MMP); Bioassay ARE, cytotoxicity)	IC10, linear (MCF7 (ARE/MMP); [2])	logIC10 (MCF7 (ARE/MMP); [3])	IC10, linear transformed (MCF7 (ARE/MMP); MMP bioassay cytotoxicity)	IC10, linear (MCF7 (ARE/MMP); [4])	logIC10 (MCF7 (ARE/MMP); [5])	IC10, MCF7, ARE (MCF7 (ARE/MMP); cytotoxicity)	IC10, MCF7, MMP (MCF7 (ARE/MMP); cytotoxicity)	IC10, linear transformed (H4IIe (AhR CALUX))	IC10, linear (H4IIe (AhR CALUX))	logIC10 (H4IIe (AhR CALUX))	IC10, H4IIe, AhR (H4IIe (AhR CALUX))	IC10, HEK293, ERα (HEK293T (ERα))	IC10, HEK293, PPARγ (HEK293H (PPARγ))	logEC10 ([1]; Bioassay ARE, dosing range all)	EC10 (SH-SY5Y cells; read-out: EC10, NOI)	EC10 (SH-SY5Y cells; read-out: EC10, NOI (M))	EC10 (SH-SY5Y cells; read-out: EC10, linear)	EC10 (SH-SY5Y cells; [6])	EC10 (SH-SY5Y cells; read-out: logEC10)	other results
Oc1ccc(C(c2ccc(O)cc2)(C(F)(F)F)C(F)(F)F)cc1 [BPAF, 4,4'-(1,1,1,3,3,3-Hexafluoropropane-2,2-diyl)diphenol]	1.84E-05	1.82E-05	-4.73	2.72E-05	2.87E-05	-4.57	18.4 µM	27.2 µM	3.99E-05	3.11E-05	-4.40	31.1 µM	9.47 µM	9.12 µM	no effect	1.62e-05 M	1.62e-05 M	1.93e-05 M	2.61e-05 M	1.62e-05 M	IC10, linear transformed (HEK293T (ERα); dosing range high): 5.56E-06; IC10, linear (HEK293T (ERα); dosing range high): no cytotoxicity; logIC10 (HEK293T (ERα); dosing range high): -5.02; IC10, linear (HEK293T (ERα); dosing range low): no cytotoxicity; logIC10 (HEK293T (ERα); dosing range low): no cytotoxicity; IC10, linear transformed (HEK293H (PPARγ); dosing range all): 4.34E-06; IC10, linear (HEK293H (PPARγ); dosing range all): 1.10E-05; logIC10 (HEK293H (PPARγ); dosing range all): -5.04; EC10, linear ([1]; Bioassay ARE, dosing range all, linear model fit): no effect
O=S(=O)(c1ccc(O)cc1)c1ccc(OCc2ccccc2)cc1 [BPS-MPE, 4-[4-(benzyloxy)benzenesulfonyl]phenol]	7.91E-05	1.19E-04	-4.10	1.23E-04	1.88E-04	-3.91	79.1 µM	123 µM	5.80E-05	5.18E-05	-4.24	51.8 µM	112 µM	134 µM	no effect	0.000247 M	0.000247 M	0.000638 M	0.000247 M	0.000245 M	Toxic ratio (TR) TRARE (MCF7 (ARE/MMP); against baseline cytotoxicity, ARE readout): 0.45; Toxic ratio (TR) TRMMP (MCF7 (ARE/MMP); against baseline cytotoxicity, MMP readout): 0.29; Toxic ratio (TR) TRAhR (H4IIe (AhR CALUX); against baseline cytotoxicity): 0.68; IC10, linear transformed (HEK293T (ERα); dosing range all): 3.17E-05; IC10, linear (HEK293T (ERα); dosing range all): 1.12E-04; logIC10 (HEK293T (ERα); dosing range all): -4.00; Toxic ratio (TR) TRERα (HEK293T (ERα); against baseline cytotoxicity): 0.10; IC10, linear transformed (HEK293H (PPARγ); dosing range high): 9.04E-06; IC10, linear (HEK293H (PPARγ); dosing range high): 1.34E-04; logIC10 (HEK293H (PPARγ); dosing range high): -3.96; IC10, linear transformed (HEK293H (PPARγ); dosing range low): 1.83E-05; IC10, linear (HEK293H (PPARγ); dosing range low): 1.11E-05; logIC10 (HEK293H (PPARγ); dosing range low): -5.06; Toxic ratio (TR) TRPPARγ (HEK293H (PPARγ); against baseline cytotoxicity): 0.09; EC10 ([1]; Arec32, read-out: EC10, linear): 55.7 µM; EC10 ([1]; Arec32, read-out: EC10, linear transformed): 133 µM; Specificity ratio (SRbaseline) SRNOI (SH-SY5Y cells; against baseline cytotoxicity): 0.11; Relative effect potency REPNOI (SH-SY5Y cells; relative to BPA): 0.21
